Experimental findings from article PMC10360056, “Chemical Evolution of Amphiphilic Xenopeptides for Potentiated Cas9 Ribonucleoprotein Delivery” (Journal of the American Chemical Society, 2023) are described below.

The test system of experiment [1] is HeLa eGFP/tub cells. Put plainly: eGFP knockout study by Cas9 RNP nanocarriers, flow cytometry. It is filed as cell-based. Particulars: 48 h treatment. The procedure: (§1) HeLa WT, HeLa eGFP/tub, HeLa GFPd2 (destabilized eGFP), CT26 eGFP/luc and N2a eGFP/luc cells were grown in DMEM medium supplemented with 10 % FBS, 100 U/mL penicillin, and 100 μg/mL streptomycin. The cells were cultured in ventilated flasks in the cell incubator at 37 °C and 5 % CO2 in a humidified atmosphere. The cells were passaged at a confluency of […]
(§2) Cells were harvested and resuspended in 600 μL of FACS buffer (PBS buffer containing 10 % FBS). The samples were ana-lyzed by flow cytometry on a CytoFLEX S flow cytometer (Beckman Coulter, CA, USA). For eGFP knockout and cellular uptake experiments, 0.6 μL of 1 μg/μL DAPI was added to each sample for differentiating live and dead cells before the measurement. The DAPI signal and BFP fluorescence were detected with 405 nm excitation and 450 nm emission. The eGFP and ATTO488 fluorescence was assayed with 488 nm excitation and 530 nm emission. The ATTO647N fluorescence was assayed with 640 nm excitation and 670 nm emission. Ten thousand of isolated live cells were counted and evaluated. The data were analyzed using FlowJo 7.6.5 by FlowJo, LLC (Becton, Dickinson and Company, USA). […]
(§3) Endosomal escape of Cas9 RNP nanocarriers […]
(§4) Next, the […]
(§5) cells were washed twice with PBS and then fixed with 4 % PFA at RT for 40 min. Afterwards, the cells were washed and incubated with 2 µg/mL DAPI (for staining cell nuclei) for 30 min. Then, the staining solution was removed and 300 μL fresh PBS were added. The slides w ere stored at 4 °C in the dark until the measurement. […]
(§6) Then, the image was conv erted into 8-bit type. The mRuby3/gal8 spots were further determined by Threshold tool, and the number of the spots in the cell cytosol per cell were counted by Analyze Particles tool.
One day prior to the treatments, HeLa eGFP/tub cell s were seeded into 96 -well plates at a density of 5000 cells/well. On the next day, the medium was replaced with 80 μL of fresh medium. 20 μL of Cas9 RNP nanocarriers were added to each well resulting in a series of concentrations of RNP (100, 75, 50, 25, 10, 5, 2.5, 1, 0.5, and 0.1 nM). Lipofectamine CRISPRMAX was tested at the same concentrations of RNP with the preparation procedures as recommended by the manufacturer. The cells were incubated for 48 h. Afterwards, the cells were trypsinized and transfer red to 24-well plates, and incubated for another 72 h. Then, the cells were harvested and prepared for flow cytometry analysis. All experiments were performed in triplicate. eGFP to BFP conversion (HDR) study
One day prior to the treatments, HeLa GFPd2 cel ls were seeded into 96 -well plates at a density of 5000 cells/well. On the next day, the medium was replaced with 80 μL of fresh medium. 20 μL of Cas9 RNP/ssDNA nanocarriers containing different molar ratios of RNP/ssDNA were added to each well resulting i n a series of concentrations of RNP (100, 75, 50, 25, 10, 5, 2.5, 1, 0.5, and 0.1 nM). Lipofectamine CRISPRMAX was tested at the same concentrations of RNP and ssDNA with the prepara-tion procedures as recommended by the manufacturer. The cells were incubat ed for 48 h. Afterwards, the cells were trypsinized and transferred to 24 -well plates, and incubated for another 72 h. Then, the cells were harvested and prepared for flow cytom-etry analysis. […]
Half maximal effective concentration (EC50) values were calculated by GraphPad prism 5. […] All other data were analyzed with GraphPad prism 5 and presented as arithmetic mean ± standard deviation (SD) of at least triplicates. […]
In general terms: In flow cytometry, cells or beads pass a laser one at a time.

Experiment [2] has as its system HeLa WT cells. Put plainly: Endocytosis pathway study with inhibitors. Particulars: 1 mM amiloride 2 h, 75 nM RNP, 4 h, flow cytometry. It is filed as cell-based. The procedure:
sgRNA amount in naked Cas9/sgRNA ribonucleoproteins (Cas9 RNPs) or Cas9 RNP nanocarriers were determined using a Quant-iTTM RiboGreen® RNA assay kit (Invitrogen, CA, USA). 50 μL of naked Cas9 RNPs or Cas9 RNP nanocarriers con-taining 250 ng Cas9 protein and 50 ng sgRNA were mixed with 50 μL of TE buffer and were added to the 96-well plate. The plate was incubated for 10 min. Afterwards, 100 μL of Ribogreen solution (diluted 1:100 in TE buffer) was added to each well.
The plate was incubated for another 5 min. Ribogreen fluorescence intensity was detected using a microplate reader (Spectra-fluor Plus, Tecan, Männedorf, Switzerland) with excitation and emission wavelength of 485 and 528 nm, respectively. […]
Cells were harvested and resuspended in 600 μL of FACS buffer (PBS buffer containing 10 % FBS). […] The DAPI signal and BFP fluorescence were detected with 405 nm excitation and 450 nm emission. The eGFP and ATTO488 fluorescence was assayed with 488 nm excitation and 530 nm emission. The ATTO647N fluorescence was assayed with 640 nm excitation and 670 nm emission. Ten thousand of isolated live cells were counted and evaluated. The data were analyzed using FlowJo 7.6.5 by FlowJo, LLC (Becton, Dickinson and Company, USA).
Cell viability was determined using an MTT assay. […]
Cellular uptake of Cas9 RNP nanocarriers was evaluated by flow cytometry and confocal laser scanning microscopy (CLSM). […]

Experiment [3] relates to CT26 eGFP/luc cells. In words: eGFP knockout in CT26 eGFP/luc cells. It is filed as cell-based, murine. As to conditions: 1 nM RNP, 48 h treatment. As for the experimental part: as §1, §2, §3
(§7) Then, the image was conv erted into 8-bit type. The mRuby3/gal8 spots were further determined by Threshold tool, and the number of the spots in the cell cytosol per cell were counted by Analyze Particles tool. […]

Experiment [4] deals with N2a eGFP/luc cells. In words: eGFP knockout in N2a eGFP/luc cells. It is filed as cell-based, murine. Particulars: 1 nM RNP, 48 h treatment. The procedure:
as §1, §2, §3, §7

The test system of experiment [5] is HeLa GFPd2 cells. In words: eGFP to BFP conversion (HDR) study, Cas9 RNP/ssDNA co-delivery. It is filed as cell-based. Particulars: for HDR: RNP/ssDNA 1/4, 48 h. The procedure:
as §1, §2, §3, §4, §5, §6
One day prior to the treatments, HeLa eGFP/tub cell s were seeded into 96 -well plates at a density of 5000 cells/well. On the next day, the medium was replaced with 80 μL of fresh medium. 20 μL of Cas9 RNP nanocarriers were added to each well resulting in a series of concentrations of RNP (100, 75, 50, 25, 10, 5, 2.5, 1, 0.5, and 0.1 nM). […]

On to `CCCCC/C=C\C/C=C\CCCCCCCC(=O)NCCCC[C@H](NC(=O)CCCCCCC/C=C\C/C=C\CCCCC)C(=O)NCCCC[C@H](NC(=O)CCC(=O)NCCNCCNCCNCCNC(=O)[C@H](Cc1ccc(O)cc1)NC(=O)[C@H](Cc1ccc(O)cc1)NC(=O)[C@H](Cc1ccc(O)cc1)NC(=O)[C@@H](N)CCCCN=[N+]=[N-])C(=O)NCCNCCNCCNCCNC(=O)CCC(=O)N[C@@H](Cc1ccc(O)cc1)C(=O)N[C@@H](Cc1ccc(O)cc1)C(=O)N[C@@H](Cc1ccc(O)cc1)C(=O)O` [Stp1-LinA], for which the eGFP knockout in experiment [1] (1 nM RNP, N/P 24) is around 80%. Moreover, in experiment [2], the “Cas9 RNP uptake after pretreatment with amiloride (macropinocytosis)” value is reported as “blocked”.
As for `CCCCC/C=C\C/C=C\CCCCCCCC(=O)NCCCC[C@H](NC(=O)CCCCCCC/C=C\C/C=C\CCCCC)C(=O)NCCCC[C@H](NC(=O)CN(CC(=O)NCCNCCNCCNCCNC(=O)[C@H](Cc1ccc(O)cc1)NC(=O)[C@H](Cc1ccc(O)cc1)NC(=O)[C@H](Cc1ccc(O)cc1)NC(=O)[C@@H](N)CCCCN=[N+]=[N-])CC(F)(F)F)C(=O)NCCNCCNCCNCCNC(=O)CN(CC(=O)N[C@@H](Cc1ccc(O)cc1)C(=O)N[C@@H](Cc1ccc(O)cc1)C(=O)N[C@@H](Cc1ccc(O)cc1)C(=O)O)CC(F)(F)F` [TFE-IDAtp1-LinA], in experiment [1] (0.5 nM (500 pM) RNP), the “eGFP knockout (disruption)” value is around 61%. In addition, the eGFP knockout in experiment [1] (1 nM RNP, N/P 24) is reported as around 88%; in experiment [1] (RNP concentrations down to 5 nM), “up to 99%”; in experiment [3] it was around 55%; in experiment [4], 13.4%. Besides, the HDR was around 11% in experiment [5] (HeLa GFPd2, 0.5 nM RNP) and around 23% in experiment [5] (HeLa GFPd2, 1 nM RNP). Further, the HDR efficiency in experiment [5] (HeLa GFPd2, 10 nM RNP, RNP/ssDNA ratio 1/8, N/P 12, 48 h) is around 28%.
